According to ChEMBL document CHEMBL3227967, “Quantitative structure-activity relationships in 1-aryl-2-(alkylamino)ethanol antimalarials” (J Med Chem, 1979):

Tested on: Plasmodium berghei
Assay: Antimalarial activity against Plasmodium berghei
Type: functional

SMILES | log(1/C)
CCCCN(CCCC)CC(O)c1cc2ccccc2c2cccc(Cl)c12 (centres undefined) | 2.32
CCCCCCCCCN(CCCCCCCCC)CC(O)c1c2ccccc2cc2ccccc12 (centres undefined) | 3.24
CCCCN(CCCC)CC(O)c1cc2ccccc2c2ccsc12 (centres undefined) | 2.22
CCC(C)NCC(O)c1cc(-c2ccc(Cl)cc2)nc(-c2ccc(Cl)cc2)c1 (centres undefined) | 4.09
OC(CC1CCCCN1)c1cc2cc(Cl)cc(Cl)c2c2cc(Cl)ccc12 (centres undefined) | 4.46
CCCCN(CCCC)CC(O)c1cc(/C=C/c2ccc(C(F)(F)F)cc2)nc(/C=C/c2ccc(C(F)(F)F)cc2)c1 (centres undefined) | 3.82
CCCN(CCC)CC(O)c1cc2cc(Br)cc(Br)c2c2cc(C(F)(F)F)ccc12 (centres undefined) | 4.24
CCCCN(CCCC)CC(O)c1cccc2cc3ccccc3cc12 (centres undefined) | 2.27
CCCCNCC(O)c1cc(-c2ccc(C(F)(F)F)cc2)nc(-c2ccc(C(F)(F)F)cc2)c1 (centres undefined) | 4.16
CCCCCCCN(CCCCCCC)CC(O)c1cc2ccccc2c2cc(F)ccc12 (centres undefined) | 3.08
CCCCCCCN(CCCCCCC)CC(O)c1cc2ccccc2c2cc(Cl)ccc12 (centres undefined) | 2.59
CCCCCN(CCCCC)CC(O)c1cc2ccc(C(F)(F)F)cc2c2ccsc12 (centres undefined) | 2.69
CCCCN(CCCC)CC(O)c1cc2ccc(Br)cc2c2cc(Br)ccc12 (centres undefined) | 3.63
CCC(C)N(C)CC(O)c1cc(-c2ccc(Cl)cc2)nc(-c2ccc(Cl)cc2)c1 (centres undefined) | 3.59
CCCCN(CCCC)CC(O)c1c(C)c(-c2ccc(Cl)cc2)nc2c(Cl)cc(Cl)cc12 (centres undefined) | 3.06
CCCCN(CCCC)CC(O)c1cc(/C=C/c2ccc(Cl)cc2)nc(C23CC4CC(CC(C4)C2)C3)c1 (centres undefined) | 2.72
CCCCCCCN(CCCCCCC)CC(O)c1cc2sccc2c2cc(Cl)sc12 (centres undefined) | 2.64
CCCCN(CCCC)CC(O)c1nc(-c2ccc(Cl)cc2)nc2ccccc12 (centres undefined) | 2.85
CCCCN(CCCC)CC(O)c1c2ccccc2c(Br)c2ccccc12 (centres undefined) | 2.88
OC(CC1CCCCN1)c1cc2ccc(Br)cc2c2cc(C(F)(F)F)ccc12 (centres undefined) | 3.7
CCCCN(CCCC)CC(O)c1ccc(Cl)c2nc(-c3ccccc3)ccc12 (centres undefined) | 2.47
CCOC(CCCNCC(O)c1cc2ccc(C(F)(F)F)cc2c2cc(C(F)(F)F)ccc12)OCC (centres undefined) | 3.55
CCCCN(CCCC)CC(O)c1c(F)c(-c2ccc(Cl)cc2)nc2c(Cl)cc(Cl)cc12 (centres undefined) | 4.22
OC(CC1CCCCN1)c1cc(-c2ccc(Cl)cc2)nc2c1ccc1ccccc12 (centres undefined) | 3.2
CCCCN(CCCC)CC(O)c1cc(-c2ccc(Cl)cc2)nc2c(C)cc(C)cc12 (centres undefined) | 3.9

SMILES | log(1/C)
CCCCCCCCN(CCCCCCCC)CC(O)c1ccnc2ccccc12 (centres undefined) | 2.44
OC(CC1CCCCN1)c1cc2ccc(C(F)(F)F)cc2c2c(Cl)cc(Cl)cc12 (centres undefined) | 4.3
CCCCCCCN(CCCCCCC)CC(O)c1cc2ccccc2c2cc(C(F)(F)F)ccc12 (centres undefined) | 3.56
CCCCCCCN(CCCCCCC)CC(O)c1cc(-c2ccc(Cl)c(Cl)c2)cc2cc(Cl)ccc12 (centres undefined) | 2.6
CCN(CC)CC(O)c1cc(-c2ccc(Cl)c(Cl)c2)nc2cc(OC)ccc12 (centres undefined) | 3.32
CCNCC(O)c1cc2ccc(C(F)(F)F)cc2c2cc(C(F)(F)F)ccc12 (centres undefined) | 4.39
CCCCN(CCCC)CC(O)c1cccc2ccc3ccccc3c12 (centres undefined) | 2.09
CCCCN(CCCC)CC(O)c1cc2ccc(C(F)(F)F)cc2c2cc(C)sc12 (centres undefined) | 2.52
C=C[C@H]1CN2CC[C@H]1C[C@H]2[C@H](O)c1ccnc2ccc(OC)cc12.O=C(O)c1ccccc1 | 1.98
COc1ccc(-c2cc(C(O)CC3CCCCN3)c3ccccc3n2)cc1 (centres undefined) | 2.53
OC(CN1CCCCCC1)c1cc(-c2cccs2)nc2cccc(Br)c12 (centres undefined) | 2.89
CCCCN(CCCC)CC(O)c1ccc2ccc3cccc(C(F)(F)F)c3c2c1 (centres undefined) | 2.23
CCCCCCCN(CCCCCCC)CC(O)c1c(OC)c2cc(Cl)ccc2c2ccc(Cl)cc12 (centres undefined) | 3.34
Cc1ccc(Oc2cc(C(O)CC3CCCCN3)c3cc(C)ccc3n2)cc1 (centres undefined) | 2.35
CCCCNc1cc(C(O)CC2CCCCN2)c2ccccc2n1 (centres undefined) | 2.41
OC(CC1CCCCN1)c1cc2cc(Br)c(Br)cc2c2cc(C(F)(F)F)ccc12 (centres undefined) | 3.58
CCCCN(CCCC)CC(O)c1cc(-c2ccc(F)cc2)nc2c(Cl)cc(Cl)cc12 (centres undefined) | 3.98
CCCN(CCC)CC(O)c1cc2ccc(Cl)c(Cl)c2c2cc(C(F)(F)F)ccc12 (centres undefined) | 4.03
OC(CC1CCCCN1)c1cc2cc(C(F)(F)F)cc(C(F)(F)F)c2c2cc(Cl)ccc12 (centres undefined) | 4.72
OC(CC1CCCCN1)c1cc(Oc2ccc(Cl)cc2)nc2ccc(Cl)cc12 (centres undefined) | 3.23
CCCCCCN(CCCCCC)CC(O)c1cc(-c2ccc(OC)cc2)nc2cc(Cl)c(Cl)cc12 (centres undefined) | 3.35
CCCCN(CCCC)CC(O)c1cc(-c2ccc(F)cc2)nc(-c2ccc(F)cc2)c1 (centres undefined) | 3.23
OC(CC1CCCCN1)c1cc2c(Cl)cc(Cl)cc2c2cc(C(F)(F)F)ccc12 (centres undefined) | 4.1
CCCCN(CCCC)CC(O)c1cc(-c2ccc(Cl)cc2)nc2ccccc12 (centres undefined) | 2.73
CCCCCCN(CCCCCC)CC(O)c1cc(-c2cccc(C(F)(F)F)c2)nc2c(Cl)cc(Cl)cc12 (centres undefined) | 3.32

SMILES | log(1/C)
CCCCN(CCCC)CC(O)c1cc2ccc(Br)cc2c2ccsc12 (centres undefined) | 2.57
CCCCN(CCCC)CC(O)c1cc2ccc(Cl)c(Cl)c2c2cc(C(F)(F)F)ccc12 (centres undefined) | 3.98
CCN(CC)CC(O)c1cc2c(Cl)cc(Cl)cc2c2cc(Cl)ccc12 (centres undefined) | 3.9
OC(CC1CCCCN1)c1cc(-c2ccccc2)nc2c(C(F)(F)F)cccc12 (centres undefined) | 3.68
OC(CC1CCCCN1)c1cc(C(F)(F)F)nc2c1cc(Cl)c1ccccc12 (centres undefined) | 3.43
CCCCN(CCCC)CC(O)c1cc(-c2ccc(Cl)cc2)nc(-c2ccc(Cl)c(Cl)c2)c1 (centres undefined) | 3
OC(CC1CCCCN1)c1cc(-c2ccc(C(F)(F)F)cc2)nc(-c2ccc(C(F)(F)F)cc2)c1 (centres undefined) | 4.19
CCCCCCCN(CCCCCCC)CC(O)c1cc2cc(Cl)ccc2c2cc(C(F)(F)F)ccc12 (centres undefined) | 3.68
CCCC[N+]([O-])(CCCC)CC(O)c1cc(-c2ccc(Cl)c(Cl)c2)nc(-c2ccc(Cl)c(Cl)c2)c1 (centres undefined) | 2.72
OC(CC1CCCCN1)c1cc2c(Cl)c(Cl)ccc2c2cc(C(F)(F)F)ccc12 (centres undefined) | 4.45
CCCN(CCC)CC(O)c1cc2ccc(C(F)(F)F)cc2c2cc(Cl)c(Cl)cc12 (centres undefined) | 4.3
CCCCN(CCCC)CC(O)c1cc(-c2ccccc2)nc2ccccc12 (centres undefined) | 2.54
OC(CC1CCCCN1)c1cc2cc(Cl)ccc2c2c(C(F)(F)F)cccc12 (centres undefined) | 4.05
Cc1cc(C)cc(-c2cc(C(O)CC3CCCCN3)c3ccccc3n2)c1 (centres undefined) | 2.24
CCCCN(CCCC)CC(O)c1cc(-c2cccs2)nc2cccc(Br)c12 (centres undefined) | 3.06
CCCCN(CCCC)CC(O)c1cc(-c2ccc(Cl)cc2)nc2cc(Cl)c(OC)cc12 (centres undefined) | 3.87
CCCCN(CCCC)CC(O)c1cc2ccccc2c2cc(Cl)ccc12 (centres undefined) | 2.77
OC(CC1CCCCN1)c1cc(-c2ccccc2)nc2c(Cl)cc(Cl)cc12 (centres undefined) | 3.9
CCCCN(CCCC)CC(O)c1cc2ccc(Cl)cc2c2cc(Cl)ccc12 (centres undefined) | 3.79
CCCCN(CCCC)CC(O)c1cc2ccc(Cl)cc2c2cc(C(F)(F)F)ccc12 (centres undefined) | 3.65
CCCCN(CCCC)CC(O)c1cc(-c2ccc(OC)cc2)nc2cc(Cl)c(OC)cc12 (centres undefined) | 3.32
CCCCN(CCCC)CC(O)c1cc(Cl)cc2ccc(-c3ccc(Cl)cc3)nc12 (centres undefined) | 2.9
CCCCN(CCCC)CC(O)c1c(Br)c2ccccc2c2ccccc12 (centres undefined) | 2.51
CCCCN(CCCC)CC(O)c1cc2c(Cl)cc(Cl)cc2c2c(Cl)cc(Cl)cc12 (centres undefined) | 4.05
CCCCN(CCCC)CC(O)c1cc(-c2ccc(Cl)cc2Cl)nc2c(Cl)cc(Cl)cc12 (centres undefined) | 3.66

SMILES | log(1/C)
CCCCN(CCCC)CC(O)c1cc(C(=O)c2cccc(Cl)c2)nc2c(C(F)(F)F)cc(Cl)cc12 (centres undefined) | 3.98
CCCCN(CCCC)CC(O)c1cc(/C=C/c2ccc(C(F)(F)F)cc2)nc(-c2ccc(C(F)(F)F)cc2)c1 (centres undefined) | 4.26
CCN(CC)CC(O)c1cc(-c2ccccc2)nc2ccc(OC)cc12 (centres undefined) | 2.44
CCCNCC(O)c1cc(C(F)(F)F)nc2c(C(F)(F)F)cccc12 (centres undefined) | 2.92
CCCCN(CCCC)CC(O)c1cc2c(Cl)c(Cl)ccc2c2cc(Cl)c(Cl)cc12 (centres undefined) | 3.34
CCCCN(CCCC)C(C)CC(O)c1cc(-c2ccc(Cl)cc2)nc2c(C)cc(C)cc12 (centres undefined) | 2.42
CCCCN(CCCC)CC(O)c1cc2cc(SC)ccc2c2cc(Cl)c(Cl)cc12 (centres undefined) | 3.74
CCCCCCCN(CCCCCCC)CC(O)c1cc2cnccc2c2ccccc12 (centres undefined) | 2.47
CCCCN(CCCC)CC(O)c1cc(-c2ccc(OC)cc2)nc2cc(OC)c(Cl)cc12 (centres undefined) | 2.71
CCCN(CCC)CC(O)c1cc2ccc(C(F)(F)F)cc2c2ccsc12 (centres undefined) | 2.82
CCCC(CCC)NCC(O)c1cc2ccc(C(F)(F)F)cc2c2cc(C(F)(F)F)ccc12 (centres undefined) | 4.33
CCCCN(CCCC)CC(O)c1c(C)c(-c2ccc(Cl)cc2Cl)nc2c(Cl)cc(Cl)cc12 (centres undefined) | 3.15
CCCCCCCN(CCCCCCC)CC(O)c1c(Br)c2ccccc2c2cc(Br)ccc12 (centres undefined) | 3.42
CCN(Cc1cc(N)ccc1OC)CC(O)c1cc2ccccc2c2cc(Br)ccc12 (centres undefined) | 2.97
CCCCNCC(O)c1cc2ccc(C(F)(F)F)cc2c2cc(C(F)(F)F)ccc12 (centres undefined) | 4.11
CCCCCCN(CCCCCC)CC(O)c1cc(-c2ccc(Cl)cc2)nc2cc(C(F)(F)F)ccc12 (centres undefined) | 2.85
CCCCCCCN(CCCCCCC)CC(O)c1cccc2cc3cccc(Cl)c3cc12 (centres undefined) | 2.36
CCCCCCCN(CCCCCCC)CC(O)c1cc(-c2ccc(F)cc2)nc(-c2ccc(F)cc2)c1 (centres undefined) | 2.55
CCCCNCC(O)c1cc2c(Cl)cc(Cl)cc2c2cc(C(F)(F)F)ccc12 (centres undefined) | 4.48
CCCCNCC(O)c1cc(/C=C/c2ccc(C(F)(F)F)cc2)nc(-c2ccc(C(F)(F)F)cc2)c1 (centres undefined) | 3.89
CCCCN(CCCC)CC(O)c1c(C)c2ccccc2c2ccccc12 (centres undefined) | 2.79
Cc1ccc2nc(-c3ccccc3)cc(C(O)CC3CCCCN3)c2c1 (centres undefined) | 2.47
OC(CN1CCCCC1)c1cc(-c2ccccc2)nc2c(Cl)cc(Cl)cc12 (centres undefined) | 3.17
CCCCN(CCCC)CC(O)c1cc(-c2ccc(OC)cc2)nc2cc(Cl)c(Cl)cc12 (centres undefined) | 3.63
